The values below come from publication PMC1968247 (British Journal of Cancer, 1993).

Series [1] is described as follows: Maximum tolerated dose, full dose range to the point of toxicity. To be noted: ip, mice. The method, then:
Br. J. Cancer (1993), 67, 441 446 t? […] Bibby Clinical Oncology Unit, University of Bradford, West Yorkshire, BD7 JDP, UK. […] In vivo anti-tumour activity was examined against three transplantable adenocarcinomas of the mouse colon and in vivo bone marrow toxicity was assessed using a spleen colony forming unit assay. The pharmacokinetic behaviour of the drug in vivo and drug stability in vitro was analysed by gas chromatography with electron capture detection. […] Clinical responses to cytotoxic agents have been largely restricted to the haematological malignancies while the majority of human solid tumours have remained refractory to chemotherapy (Marsoni et al., 1987). […] However, their clinical usefulness has been limited by non-selective host toxicity, particularly myelosuppres- sion. The chloroethylnitrosoureas decompose spontaneously in aqueous solution to generate reactive intermediates that are capable of alkylating and carbamoylating nucleophilic targets (Cheng et al., 1972). Alkylation reactions consist of chloroethylations and hydroxyethylations of DNA (Tong et al., 1982). Chloroethylation of 06-guanine with subsequent cross-link formation is considered to be the most important cytotoxic reaction (Lown et al., 1978) while hydroxyethyla- tion reactions are thought to be responsible for their mutagenic and carcinogenic effects (Pelfrene et al., 1976; Swenson et al., 1979). […] The assessment of stem cell survival has been recommended to study irreversible cytotoxic bone marrow injury (Schofield, 1986) and this can be performed readily in mice using a spleen colony forming unit assay. […] In vitro activity was assessed against a panel of established murine and human tumour cell lines while in vivo anti-tumour responses were evaluated against an ascitic tumour, MAC 15A, and two solid subcutaneous (sc) tumours, MAC 13 and MAC 26. […] Chemosensitivity testing In vitro chemosensitivity was assessed using a modified micro-tetrazolium (MTT) assay (Twenty- man & Luscombe, 1987).

The subject of a further series is bone marrow. The conditions noted are these: 24 h. The method, then:
(§1) Br. J. Cancer (1993), 67, 441 446 t? […] Bibby Clinical Oncology Unit, University of Bradford, West Yorkshire, BD7 JDP, UK. […] In vivo anti-tumour activity was examined against three transplantable adenocarcinomas of the mouse colon and in vivo bone marrow toxicity was assessed using a spleen colony forming unit assay. The pharmacokinetic behaviour of the drug in vivo and drug stability in vitro was analysed by gas chromatography with electron capture detection. […] Clinical responses to cytotoxic agents have been largely restricted to the haematological malignancies while the majority of human solid tumours have remained refractory to chemotherapy (Marsoni et al., 1987). […] However, their clinical usefulness has been limited by non-selective host toxicity, particularly myelosuppres- sion. The chloroethylnitrosoureas decompose spontaneously in aqueous solution to generate reactive intermediates that are capable of alkylating and carbamoylating nucleophilic targets (Cheng et al., 1972). Alkylation reactions consist of chloroethylations and hydroxyethylations of DNA (Tong et al., 1982). Chloroethylation of 06-guanine with subsequent cross-link formation is considered to be the most important cytotoxic reaction (Lown et al., 1978) while hydroxyethyla- tion reactions are thought to be responsible for their mutagenic and carcinogenic effects (Pelfrene et al., 1976; Swenson et al., 1979). […] In the search for other types of compound that would chloroethylate DNA, a series of 2-haloethylsulphonates was synthesised (Shealy et al., 1983). […] Recently, the NCI has introduced a new disease-orientated screening programme based on the assessment of the in vitro cytotoxicity of a panel of cell lines representing the common clinical forms of human cancers using a colorimetric assay (Boyd, 1989). […] One reason for this discrepancy is that the in vitro tests ignore the potential role played by the pharmacokinetic behaviour and bioavailability of a drug in determining tumour responses in vivo. […] It has been used extensively as part of the pre-clinical evaluation of new anti-cancer agents within the Screening and Pharmacology Group of the EORTC (Bibby et al., 1988b). The feasibility of performing minimal toxicity studies in conjunction with anti-tumour studies has been described (Bibby et al., 1988b). […] Correspondence: A.M. Matthew. Received 6 December 1991; and in revised form 13 October 1992. Br. J. Cancer (1993), 67, 441-446 '?" Macmillan Press Ltd., 1993 442 A.M. MATIHEW et al. ethylating agents with improved therapeutic indices. The assessment of stem cell survival has been recommended to study irreversible cytotoxic bone marrow injury (Schofield, 1986) and this can be performed readily in mice using a spleen colony forming unit assay. […] In vitro activity was assessed against a panel of established murine and human tumour cell lines while in vivo anti-tumour responses were evaluated against an ascitic tumour, MAC 15A, and two solid subcutaneous (sc) tumours, MAC 13 and MAC 26. MAC 13 is relatively nitrosourea-sensitive due to a low level of the repair enzyme 06-alkylguanine-DNA alkyltransferase while MAC 26 is relatively nitrosourea-resistant due to a high repair enzyme level (Lunn et al., 1989). In vivo bone marrow toxicity and pharmacokinetic studies and in vitro drug stability studies were performed in conjunction with the anti-tumour studies. […] Chlorozotocin was dissolved in 10% dimethylsulphoxide (DMSO)/arachis oil. Drug solutions were prepared at an appropriate concentration for the desired in vivo dose to be administered in 0.1 ml per 10 g body weight by intra- peritoneal (ip) or intravenous (iv) injection and for the desired final concentration in vitro to be achieved upon a 1 in 10 dilution. […] Chemosensitivity testing In vitro chemosensitivity was assessed using a modified micro-tetrazolium (MTT) assay (Twenty- man & Luscombe, 1987).

A further series deals with MAC 26 tumours. The conditions noted are these: for Survivors: MAC 26 bearers. The method, then:
as §1

The test system of another series is MAC 15A ascites tumour. In words: Anti-tumour activity against MAC 15A (median survival time). Type of series: in vivo, NMRI mice. The conditions noted are these: 30 mg kg-1 ip. The method, then: as §1
The subject of a further series is MAC 13 tumours. In words: Anti-tumour activity against MAC 13 (tumour weight). It counts as in vivo, NMRI mice. To be noted: 30 mg kg-1 ip. The method, then: as §1

Where two headings read alike, the source gives them in different places.

Compound `CN(C)S(=O)(=O)CCNC(=O)N(CCCl)N=O` [TCNU, 1-(2-chloroethyl)-3-[2-(dimethylaminosulphonyl)ethyl]-I -nitro-sourea] displayed a Maximum tolerated dose in series [1] of 30 mg kg-'. The Survival fraction in the series on bone marrow (5 mg kg-1 ip) came to 0.61; in the series on bone marrow (10 mg kg-1 ip), 0.20; in the series on bone marrow (30 mg kg-1 ip), 0. The compound further displayed a No. colonies observed in the series on bone marrow (30 mg kg-1 ip, mean, SD, n = 6) of 0. In the series with MAC 26 tumours (MAC 26, 30 mg kg-1 ip), this compound displayed a Tumour growth delay of 11.6 days. Besides, the Survivors with MAC 26 tumours (30 mg kg-1 ip) is listed as 10/10; with MAC 26 tumours (50 mg kg-1 ip) it was 0/5. This compound had a T/C% in the series with MAC 15A ascites tumour of 200%. The “% Tumour weight inhibition” value with MAC 13 tumours came out at 91.3%.
